Test results reported in ChEMBL document CHEMBL4765275, “Discovery of novel tertiary amide derivatives as NEDDylation pathway activators to inhibit the tumor progression in vitro and in vivo” (Eur J Med Chem, 2020).
Calls of active or inactive are those of the source. No cut-off for these calls is given here.

What was measured:
[1] = target: T1, NEDD8-activating enzyme E1 regulatory subunit (Homo sapiens) (UniProt Q13564); test: Activation of NAE1-mediated neddylation in human MGC-803 cells assessed as increase in Nedd8-CUL1 adduct formation at 50 to 150 nmol/L measured after 24 hrs by Western blot analysis; format: cell-based; details: filed as activator, dose 50-150 nmol/L
T1 sequence (whole entry): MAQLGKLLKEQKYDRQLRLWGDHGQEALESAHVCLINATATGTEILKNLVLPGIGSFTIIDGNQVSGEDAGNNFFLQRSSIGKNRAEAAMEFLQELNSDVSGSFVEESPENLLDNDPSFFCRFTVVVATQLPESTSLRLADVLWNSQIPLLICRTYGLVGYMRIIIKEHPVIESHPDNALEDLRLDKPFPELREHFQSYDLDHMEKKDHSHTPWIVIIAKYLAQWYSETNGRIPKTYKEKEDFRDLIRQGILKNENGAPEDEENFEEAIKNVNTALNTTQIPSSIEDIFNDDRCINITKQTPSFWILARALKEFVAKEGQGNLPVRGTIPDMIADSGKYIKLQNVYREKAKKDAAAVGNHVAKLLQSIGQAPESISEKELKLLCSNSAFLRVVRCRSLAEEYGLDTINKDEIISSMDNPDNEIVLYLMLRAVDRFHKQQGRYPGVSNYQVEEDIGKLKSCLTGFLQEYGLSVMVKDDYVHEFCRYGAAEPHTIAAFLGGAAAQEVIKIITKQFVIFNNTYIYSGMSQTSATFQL

[2] = test system: MGC-803; test: Induction of apoptosis in human MGC-803 cells assessed as increase in activated caspase-8 expression at 50 to 150 nmol/L measured after 48 hrs by Western blot analysis; format: functional, cell-based; details: dose 50-150 nmol/L
[3] = test system: MGC-803; test: Induction of apoptosis in human MGC-803 cells assessed as down regulation of c-IAP1 expression at 150 nmol/L measured after 24 hrs in presence of NEDDylation inhibitor MLN4924 by Western blot analysis; format: functional, cell-based
[4] = test system: MGC-803; test: Cell cycle arrest in human MGC-803 cells assessed as accumulation at S phase at 150 nmol/L measured after 48 hrs by propidium iodide staining based flow cytometry (reference value: 34.48%); format: functional
[5] = test system: MGC-803; test: Induction of apoptosis in human MGC-803 cells assessed as viable cells at 150 nmol/L measured after 48 hrs by Annexin V-FITC/propidium iodide staining based flow cytometry (reference value: 91.7%); format: functional; details: read-out: Activity
[6] = test system: MGC-803; test: Induction of apoptosis in human MGC-803 cells assessed as down regulation of Bcl-2 expression at 50 to 150 nmol/L measured after 48 hrs by Western blot analysis; format: functional, cell-based; details: dose 50-150 nmol/L
[7] = test system: MGC-803; test: Induction of morphological changes in human MGC-803 cells assessed as increase in cell debris at 50 to 150 nmol/L measured after 48 hrs by bright field microscopic analysis; format: functional, cell-based; details: dose 50-150 nmol/L
[8] = test system: MGC-803; test: Cell cycle arrest in human MGC-803 cells assessed as accumulation at G2 phase at 150 nmol/L measured after 48 hrs by propidium iodide staining based flow cytometry (reference value: 24.91%); format: functional
[9] = test system: MGC-803; test: Antitumor activity against human MGC-803 cells xenografted in mouse assessed as reduction in tumor volume at 100 to 150 mg/kg, sc measured after 28 days by caliper method; format: functional, organism-based; details: dose 100-150 mg/kg, time 28.0 day
[10] = test system: MGC-803; test: Induction of apoptosis in human MGC-803 cells assessed as increase in activated caspase-9 expression at 50 to 150 nmol/L measured after 48 hrs by Western blot analysis; format: functional, cell-based; details: dose 50-150 nmol/L
[11] = target: T1, NEDD8-activating enzyme E1 regulatory subunit (Homo sapiens); test: Activation of NAE1-mediated neddylation in human MGC-803 cells assessed as increase in Nedd8-[…] adduct formation at 50 to 150 nmol/L measured after 24 hrs by Western blot analysis; format: cell-based; details: filed as activator, dose 50-150 nmol/L
[12] = test system: MGC-803; test: Antiproliferative activity against human MGC-803 cells assessed as cell viability measured after 48 hrs in presence of NEDDylation inhibitor MLN4924 by MTT assay relative to control; format: functional
[13] = test system: MGC-803; test: Induction of apoptosis in human MGC-803 cells assessed as down regulation of XIAP expression at 150 nmol/L measured after 24 hrs in presence of NEDDylation inhibitor MLN4924 by Western blot analysis; format: functional, cell-based
[14] = test system: MGC-803; test: Induction of apoptosis in human MGC-803 cells assessed as upregulation of PIDD expression at 50 to 150 nmol/L measured after 48 hrs by Western blot analysis; format: functional, cell-based; details: dose 50-150 nmol/L
[15] = test system: MGC-803; test: Cell cycle arrest in human MGC-803 cells assessed as accumulation at S phase at 50 nmol/L measured after 48 hrs by propidium iodide staining based flow cytometry (reference value: 34.48%); format: functional
[16] = test system: MGC-803; test: Induction of apoptosis in human MGC-803 cells assessed as viable cells at 50 nmol/L measured after 48 hrs by Annexin V-FITC/propidium iodide staining based flow cytometry (reference value: 91.7%); format: functional; details: read-out: Activity
[17] = test system: MGC-803; test: Induction of apoptosis in human MGC-803 cells assessed as necrotic cells at 50 nmol/L measured after 48 hrs by Annexin V-FITC/propidium iodide staining based flow cytometry (reference value: 0.5%); format: functional
[18] = test system: MGC-803; test: Induction of apoptosis in human MGC-803 cells assessed as down regulation of c-IAP1 expression at 150 nmol/L measured after 24 hrs in presence of protein synthesis inhibitor CHX by Western blot analysis; format: functional, cell-based
[19] = test system: MGC-803; test: Cell cycle arrest in human MGC-803 cells assessed as accumulation at S phase at 100 nmol/L measured after 48 hrs by propidium iodide staining based flow cytometry (reference value: 34.48%); format: functional
[20] = test system: MGC-803; test: Induction of morphological changes in human MGC-803 cells assessed as nuclear condensation at 50 to 150 nmol/L measured after 48 hrs by DAPI staining based assay; format: functional, cell-based; details: dose 50-150 nmol/L
[21] = test system: MGC-803; test: Induction of morphological changes in human MGC-803 cells assessed as nuclear fragmentation at 50 to 150 nmol/L measured after 48 hrs by DAPI staining based assay; format: functional, cell-based; details: dose 50-150 nmol/L
[22] = test system: MGC-803; test: Induction of apoptosis in human MGC-803 cells assessed as upregulation of Bax expression at 50 to 150 nmol/L measured after 48 hrs by Western blot analysis; format: functional, cell-based; details: dose 50-150 nmol/L
[23] = test system: MGC-803; test: Induction of apoptosis in human MGC-803 cells assessed as early apoptotic cells at 150 nmol/L measured after 48 hrs by Annexin V-FITC/propidium iodide staining based flow cytometry (reference value: 2.2%); format: functional
[24] = test system: MGC-803; test: Antitumor activity against human MGC-803 cells xenografted in mouse assessed as reduction in tumor weight at 50 mg/kg, sc measured after 28 days relative to control; format: functional; parameters: scale not given: the % may be the effect or the level left; details: time 28 day
[25] = target: T1, NEDD8-activating enzyme E1 regulatory subunit (Homo sapiens); test: Activation of NAE1-mediated neddylation in human MGC-803 cells assessed as increase in Nedd8-[…] adduct formation at 50 to 500 nmol/L measured after 30 mins in presence of ATP by Western blot analysis; format: cell-based; details: filed as activator, dose 50-500 nmol/L
[26] = test system: MGC-803; test: Antiproliferative activity against human MGC-803 cells assessed as cell viability measured after 48 hrs by MTT assay relative to control; format: functional
[27] = test system: MGC-803; test: Cell cycle arrest in human MGC-803 cells assessed as accumulation at G1 phase at 100 nmol/L measured after 48 hrs by propidium iodide staining based flow cytometry (reference value: 40.61%); format: functional

SMILES: COc1ccc(CN(C(=O)Cc2cccs2)c2cc(OC)c(OC)c(OC)c2)cc1
- Activity [1]: Active
- Activity [2]: Active
- Activity [3]: inactive
- Activity [4]: 16.21%
- viability at 0.15 µM [5]: 8.6%
- Activity [6]: Active
- Activity [7]: Active
- Activity [8]: 52.97%
- Activity [9]: Active
- Activity [10]: Active
- Activity [11]: Active
- Activity [12]: 64.2%
- Activity [13]: Active
- Activity [14]: Active
- Activity [15]: 27.68%
- viability at 0.05 µM [16]: 87.7%
- Activity [17]: 0.6%
- Activity [18]: Active
- Activity [19]: 21.52%
- Activity [20]: Active
- Activity [21]: Active
- Activity [22]: Active
- Activity [23]: 39.9%
- Activity [24]: 36%
- Activity [25]: Active
- Activity [26]: 12.1%
- Activity [27]: 37.76%
